Measurements from patent publication US7230013B2, “C10 carbamoyloxy substituted taxane compositions” (Florida State University Research Foundation, Inc., priority 2000, dated 2007).
pIC50: −log10 of the molar value.

Columns and labels:
[1] = tested on: HCT116 cells; experiment: In vitro cytotoxicity measured by the cell colony formation assay; format: cell-based; settings: Homo sapiens, HCT-116; read-out: IN VITRO ID 50 (nm) HCT116
Experimental: In Vitro Cytotoxicity Measured by the Cell Colony Formation Assay
Four hundred cells (HCT116) were plated in 60 mm Petri dishes containing 2.7 mL of medium (modified McCoy's 5a medium containing 10% fetal bovine serum and 100 units/mL penicillin and 100 µg/mL streptomycin). The cells were incubated in a CO2 incubator at 37° C. for 5 h for attachment to the bottom of Petri dishes. The compounds identified in Example 2 were made up fresh in medium at ten times the final concentration, and then 0.3 mL of this stock solution was added to the 2.7 mL of medium in the dish. The cells were then incubated with drugs for 72 h at 37° C. At the end of incubation the drug-containing media were decanted, the dishes were rinsed with 4 mL of Hank's Balance Salt Solution (HBSS), 5 mL of fresh medium was added, and the dishes were returned to the incubator for colony formation. The cell colonies were counted using a colony counter after incubation for 7 days.

CCNC(=O)O[C@H]1C(=O)[C@@]2(C)C([C@H](OC(=O)c3ccccc3)[C@]3(O)C[C@H](OC(=O)[C@H](O)[C@@H](NC(=O)OC(C)(C)C)c4cccs4)C(C)=C1C3(C)C)[C@]1(OC(C)=O)CO[C@@H]1C[C@@H]2O (some centres unmarked) (hydrate or solvate) [Compound 2722, 3′-Desphenyl-3′-(2-thienyl)-10-N-ethylcarbamoyl docetaxel]
melting point: 166 to 168 °C

CCNC(=O)O[C@H]1C(=O)[C@@]2(C)C([C@H](OC(=O)c3ccccc3)[C@]3(O)C[C@H](OC(=O)[C@H](O)[C@@H](NC(=O)OC(C)(C)C)c4cccs4)C(C)=C1C3(C)C)[C@]1(OC(C)=O)CO[C@@H]1C[C@@H]2O (some centres unmarked) [Compound 2722, 3′-Desphenyl-3′-(2-thienyl)-10-N-ethylcarbamoyl docetaxel]
pIC50 [1]: > 9.00
